Where two headings read alike, the source gives them in different places.
Assays:
cytomegalovirus = conditions: relative to artesunate; cited from earlier work
23 leukemia cell lines = conditions: average over 23 leukemia cell lines, relative to artesunate; cited from earlier work
[1] = system: MOLT4 (human T-cell acute lymphoblastic leukemia); test: MTT cytotoxicity assay, MOLT4 cell line; format: cell-based; conditions: read-out: IC50 MOLT4
Experimental: (§1) Artesunate and dihydroartemisinin were purchased from AK Scientific (Union City, Calif.). CellTiter 96® Non-Radioactive Cell Proliferation Assay (MTT) reagent was purchased from Promega (Madison, Wis.). A549 (human lung carcinoma), HeLa (human cervical carcinoma), MOLT4 (human T-cell acute lymphoblastic leukemia) were purchased from American Type Culture Collection (Manassas, Va.) and cultured in Ham's F-12 K media supplemented with 10% FBS, 100 μg/ml of penicillin and 100 μg/ml of streptomycin. The culture was maintained at 37° C. in a humidified atmosphere of 5% CO2 and 95% air.
(§2) Both reference and test compounds were dissolved in DMSO in a 10-concentration and 3-fold serial dilution format. 50 nl stock solution of test compounds or 25 nl of reference compounds were delivered from the source plate to the wells of 384-well cell culture plates. 25 μl of culture medium containing 2,000 corresponding cancer cells were added to the wells. The plates were incubated at 37° C. in a humidified atmosphere of 5% CO2 and 95% air for 72 hours. 4 μl of MTT Dye Solution was added to each well and the plates were incubated at 37° C. in a CO2 incubator for 4 hours. After incubation, the formazan was produced in the cells. 25 μl of Solubilization/Stop Solution was added to each well and the plates were incubated for another 1 hour at 37° C. in a CO2 incubator to dissolve the formazan crystals.
(§3) The absorbance of each sample was measured at 590 nm using Envision 2104 Multilabel Reader (PerkinElmer, Santa Clara, Calif.). The cell viability was determined based on the quantification of the color intensity in each culture well. The inhibitory curves were plotted and the IC50 values were calculated using GraphPad Prism 4 program based on a sigmoidal dose-response equation.

HepG2 cell line = test: MTT cytotoxicity assay, HepG2 cell line; format: cell-based
Experimental: as §2, §3

[2] = system: HeLa (human cervical carcinoma); test: MTT cytotoxicity assay, HeLa cell line; format: cell-based; conditions: read-out: IC50 HeLa
Experimental: as §1, §2, §3

[3] = system: A549 (human lung carcinoma); test: MTT cytotoxicity assay, A549 cell line; format: cell-based; conditions: 72 hours; for inhibition at 0.1 µM / inhibition at 0.25 µM / inhibition at 0.5 µM / inhibition at 1 µM: Homo sapiens
Experimental: as §1, §2, §3

[4] = Homo sapiens, MOLT-4, MOLT4, 72 hours, MTT
[5] = HepG2, MTT, read-out: IC50 HepG2
[6] = Homo sapiens, HepG2, MTT, read-out: IC50 HepG2

C[C@@H]1CCC2[C@@H](C)[C@@H](CC(COP(=O)(Oc3ccccc3)Oc3ccccc3)C[C@H]3O[C@@H]4O[C@@]5(C)CCC6[C@H](C)CCC([C@H]3C)[C@]64OO5)O[C@@H]3O[C@@]4(C)CCC1[C@@]23OO4 (some centres unmarked) [ART838]
fold more potent in inhibiting growth of cytomegalovirus than artesunate (cytomegalovirus): 165 fold | folds more potent than artesunate in inhibiting 23 leukemia cell lines (average) (23 leukemia cell lines): 88 folds

C[C@H]1[C@H](OC(=O)CCC(=O)O)O[C@@H]2O[C@@]3(C)CC[C@H]4[C@H](C)CC[C@@H]1[C@@]24OO3 [Artesunate, reference compound]
IC50 ([1]; Homo sapiens, MOLT-4, 72 h): 1010 nM | IC50 (HepG2 cell line; Homo sapiens, HepG2, read-out: IC50 HepG2): 11200 nM | IC50 ([2]; Homo sapiens, 72 h): 9570 nM

C[C@H]1[C@H](OC(=O)CCC(=O)OCCN(CCOC(=O)CCC(=O)O[C@@H]2O[C@@H]3O[C@]4(C)CC[C@H]5[C@H](C)CC[C@@H]([C@H]2C)[C@@]35OO4)CCOC(=O)CCC(=O)O[C@@H]2O[C@@H]3O[C@]4(C)CC[C@H]5[C@H](C)CC[C@@H]([C@H]2C)[C@@]35OO4)O[C@@H]2O[C@@]3(C)CC[C@H]4[C@H](C)CC[C@@H]1[C@@]24OO3 [Compound 1]
inhibition at 0.1 µM ([3]; 0.1 μM): 10% | inhibition at 0.25 µM ([3]; 0.25 μM): 14% | inhibition at 0.5 µM ([3]; 0.5 μM): 20% | inhibition at 1 µM ([3]; 1.0 μM): 47% | IC50 [1, 4]: 318 nM | IC50 ([2]; Homo sapiens, 72 hours, MTT): 1720 nM

C[C@@H]1CC[C@H]2[C@@H](C)C(OC(=O)CN(CC(=O)OC3O[C@@H]4O[C@@]5(C)CC[C@H]6[C@H](C)CC[C@@H]([C@H]3C)[C@@]46OO5)CC(=O)OC3O[C@@H]4O[C@@]5(C)CC[C@H]6[C@H](C)CC[C@@H]([C@H]3C)[C@@]46OO5)O[C@@H]3O[C@@]4(C)CC[C@@H]1[C@]32OO4 (some centres unmarked) [Compound 2]
Inhibition (%) ([3]; 0.1 μM): 12% | Inhibition (%) ([3]; 0.25 μM): 20% | Inhibition (%) ([3]; 0.5 μM): 21% | Inhibition (%) ([3]; 1.0 μM): 40% | IC50 ([1]; MOLT4, 72 hours, MTT): 320 nM | IC50 ([2]; 72 hours, MTT): 1140 nM

CC1CCC2C(C)C(OC(=O)CCC(=O)OCC(COC(=O)CCC(=O)OC3OC4OC5(C)CCC6C(C)CCC(C3C)C46OO5)OC(=O)CCC(=O)OC3OC4OC5(C)CCC6C(C)CCC(C3C)C46OO5)OC3OC4(C)CCC1C32OO4 (centres unmarked) [Compound 3]
IC50 ([1]; MOLT4, 72 hours, MTT): 60 nM | IC50 (HepG2 cell line; [5]): 830 nM | IC50 ([2]; 72 hours, MTT): 630 nM

C[C@H]1[C@H](OC(=O)CCC(=O)NC(COC(=O)CCC(=O)O[C@@H]2O[C@@H]3O[C@@]4(C)CC[C@H]5[C@H](C)CC[C@@H]([C@H]2C)[C@@]35OO4)COC(=O)CCC(=O)O[C@@H]2O[C@@H]3O[C@@]4(C)CC[C@H]5[C@H](C)CC[C@@H]([C@H]2C)[C@@]35OO4)O[C@@H]2O[C@@]3(C)CC[C@H]4[C@H](C)CC[C@@H]1[C@@]24OO3 [Compound 4]
IC50 (HepG2 cell line; [6]): 1790 nM

C[C@H]1[C@H](OC(=O)CCC(=O)OCC(COC(=O)CCC(=O)O[C@@H]2O[C@@H]3O[C@@]4(C)CC[C@H]5[C@H](C)CC[C@@H]([C@H]2C)[C@@]35OO4)(COC(=O)CCC(=O)O[C@@H]2O[C@@H]3O[C@@]4(C)CC[C@H]5[C@H](C)CC[C@@H]([C@H]2C)[C@@]35OO4)NC(=O)OC(C)(C)C)O[C@@H]2O[C@@]3(C)CC[C@H]4[C@H](C)CC[C@@H]1[C@@]24OO3 [Compound 7]
inhibition at 0.1 µM ([3]; 0.1 μM): 12% | inhibition at 0.25 µM ([3]; 0.25 μM): 14% | inhibition at 0.5 µM ([3]; 0.5 μM): 21% | inhibition at 1 µM ([3]; 1.0 μM): 40% | IC50 [1, 4]: 119 nM | IC50 ([2]; Homo sapiens, 72 hours, MTT): 602 nM

CC(=O)NC(COC(=O)CCC(=O)O[C@@H]1O[C@@H]2O[C@@]3(C)CC[C@H]4[C@H](C)CC[C@@H]([C@H]1C)[C@@]24OO3)(COC(=O)CCC(=O)O[C@@H]1O[C@@H]2O[C@@]3(C)CC[C@H]4[C@H](C)CC[C@@H]([C@H]1C)[C@@]24OO3)COC(=O)CCC(=O)O[C@@H]1O[C@@H]2O[C@@]3(C)CC[C@H]4[C@H](C)CC[C@@H]([C@H]1C)[C@@]24OO3 [Compound 9]
IC50 [1, 4]: 66 nM | IC50 (HepG2 cell line; [6]): 310 nM | IC50 ([2]; Homo sapiens, 72 hours, MTT): 360 nM

C[C@H]1[C@H](OC(=O)CCC(=O)OCC(COC(=O)CCC(=O)O[C@@H]2O[C@@H]3O[C@@]4(C)CC[C@H]5[C@H](C)CC[C@@H]([C@H]2C)[C@@]35OO4)(COC(=O)CCC(=O)O[C@@H]2O[C@@H]3O[C@@]4(C)CC[C@H]5[C@H](C)CC[C@@H]([C@H]2C)[C@@]35OO4)NC=O)O[C@@H]2O[C@@]3(C)CC[C@H]4[C@H](C)CC[C@@H]1[C@@]24OO3 [Compound 11]
IC50 (HepG2 cell line; [6]): 550 nM

C[C@H]1[C@H](OC(=O)CCC(=O)OCC(COC(=O)CCC(=O)O[C@@H]2O[C@@H]3O[C@@]4(C)CC[C@H]5[C@H](C)CC[C@@H]([C@H]2C)[C@@]35OO4)(COC(=O)CCC(=O)O[C@@H]2O[C@@H]3O[C@@]4(C)CC[C@H]5[C@H](C)CC[C@@H]([C@H]2C)[C@@]35OO4)NC(=O)C(F)(F)F)O[C@@H]2O[C@@]3(C)CC[C@H]4[C@H](C)CC[C@@H]1[C@@]24OO3 [Compound 12]
IC50 (HepG2 cell line; [6]): 7800 nM

C[C@@H]1[C@@H](OC(=O)CCC(=O)NC(COC(=O)CCC(=O)O[C@@H]2O[C@@H]3O[C@@]4(C)CC[C@H]5[C@H](C)CC[C@@H]([C@H]2C)[C@@]35OO4)(COC(=O)CCC(=O)O[C@@H]2O[C@@H]3O[C@@]4(C)CC[C@H]5[C@H](C)CC[C@@H]([C@H]2C)[C@@]35OO4)COC(=O)CCC(=O)O[C@@H]2O[C@@H]3O[C@@]4(C)CC[C@H]5[C@H](C)CC[C@@H]([C@H]2C)[C@@]35OO4)O[C@H]2O[C@@]3(C)CC[C@@H]4[C@@H](C)CC[C@H]1[C@]24OO3 [Compound 13]
IC50 [1, 4]: 150 nM | IC50 ([2]; Homo sapiens, 72 hours, MTT): 14200 nM

C[C@H]1[C@H](OC(=O)CC(CC(=O)O[C@@H]2O[C@@H]3O[C@]4(C)CC[C@H]5[C@H](C)CC[C@@H]([C@H]2C)[C@@]35OO4)C(=O)O[C@@H]2O[C@@H]3O[C@]4(C)CC[C@H]5[C@H](C)CC[C@@H]([C@H]2C)[C@@]35OO4)O[C@@H]2O[C@@]3(C)CC[C@H]4[C@H](C)CC[C@@H]1[C@@]24OO3 (some centres unmarked) [Compound 14]
IC50 (HepG2 cell line; [5]): 1300 nM

C[C@H]1[C@H](OC(=O)CCC(=O)OCCN(CCOC(=O)CCC(=O)O[C@@H]2O[C@@H]3O[C@@]4(C)CC[C@H]5[C@H](C)CC[C@@H]([C@H]2C)[C@@]35OO4)CCN(CCOC(=O)CCC(=O)O[C@@H]2O[C@@H]3O[C@@]4(C)CC[C@H]5[C@H](C)CC[C@@H]([C@H]2C)[C@@]35OO4)CCOC(=O)CCC(=O)O[C@@H]2O[C@@H]3O[C@@]4(C)CC[C@H]5[C@H](C)CC[C@@H]([C@H]2C)[C@@]35OO4)O[C@@H]2O[C@@]3(C)CC[C@H]4[C@H](C)CC[C@@H]1[C@@]24OO3 [Compound 15]
IC50 [1, 4]: 275 nM | IC50 ([2]; Homo sapiens, 72 hours, MTT): 35200 nM

C[C@H]1[C@H](OC(=O)CCC(=O)OCCN(CCO)CCN(CCOC(=O)CCC(=O)O[C@@H]2O[C@@H]3O[C@@]4(C)CC[C@H]5[C@H](C)CC[C@@H]([C@H]2C)[C@@]35OO4)CCOC(=O)CCC(=O)O[C@@H]2O[C@@H]3O[C@@]4(C)CC[C@H]5[C@H](C)CC[C@@H]([C@H]2C)[C@@]35OO4)O[C@@H]2O[C@@]3(C)CC[C@H]4[C@H](C)CC[C@@H]1[C@@]24OO3 [Compound 16]
IC50 [1, 4]: 217 nM | IC50 ([2]; Homo sapiens, 72 hours, MTT): 1110 nM

C[C@H]1[C@@H](O)O[C@@H]2O[C@@]3(C)CC[C@H]4[C@H](C)CC[C@@H]1[C@@]24OO3 [Dihydroartemisinin, reference compound]
inhibition at 0.25 µM ([3]; 0.25 μM): 5% | inhibition at 0.5 µM ([3]; 0.5 μM): 10% | inhibition at 1 µM ([3]; 1.0 μM): 20% | IC50 [1, 4]: 680 nM | IC50 ([2]; Homo sapiens, 72 hours, MTT): 9340 nM

Source: US11358970B2, “Artemisinin-derived trimers and tetramers and their use thereof” (priority 2017, dated 2022)
